For assay [1], the system named is Immortalised Mouse Dermal Fibroblasts (MDFs). The assay can be described thus: Cellular assay: inhibition of TSI induced necroptosis, CellTitre-Glo viability. The settings on record: Mus musculus, Fibroblast, MDF, 3 hours TSI cocktail, read-out: Inhibition of TSI-induced necroptosis (IC50 cell-based assay) in MDF. How it is done: Cellular Assay: Screening Compounds for Inhibition of TSI Induced Necroptosis in, 384 Well Plate Format.
• Cell Line ID: Immortalised Mouse Dermal Fibroblasts (MDFs). • Cell Concentration (cells/well): Final cell density is 2200 cells per well. • Cell growth medium: DMEM medium+7.4% Fetal Bovine Serum (FBS). Cells are cultured in Corning 150 cm^2 tissue culture flasks with vented caps at 37° C./10% CO2. • Incubation: Plates were incubated for 30 minutes following addition of compounds and then 3 hours incubation with death stimuli (TSI cocktail) at 37° C./10% CO2 in a humidified incubator. • Compound concentration: 36 μM starting concentration, 1:3 dilution, 10 point • DMSO final concentration (% v/v): 0.3%. Compounds in TSI Cocktail (T: TNF; S: Smac Mimetic; I: IDN-6556) and their Final Concentrations: • rhTNF (100 ng/ml) • Compound a (500 nM)—Smac Mimetic, Tetralogic and SYNthesis Med Chem • IDN-6556 (10 μM)—Selleckchem (S7775)
The cellular assay was carried out according to the following steps: • 1. Each well was prepared by sequential addition of: • a. 40 μL of cell suspension (5.5×10^4 cells/mL) was added to each well to provide a final cell concentration of 2,200 cells per well. • b. After 24 hours, DMSO (control; columns 1-2 and 23-24) or compound in DMSO—addition was performed using acoustic transfer of nL volumes of stock compound to give final test concentrations of 36, 12, 4, 1.3, 0.44, 0.148, 0.049, 0.016, 0.005 and 0.002 μM. All wells were backfilled with DMSO to a final total volume in the well of 100 nL. • c. Following compound/DMSO addition in step (b), Plates were incubated for 30 minutes at 37° C./10% CO2 in a humidified incubator and then 10 μL of 5×TSI cocktail (except to positive controls; columns 2 and 24) was added to each well. • 2. After 3 hours, plate was removed from the 37° C. incubator and equilibrated to room temperature for 15 minutes. • 3. 15 μL of room temperatured CellTitre-Glo2™ (Promega™) was added to each well. • 4. Shook plates for 2 minutes (˜600 rpm) and incubated at room temperature for 15 minutes to allow signal to stabilise. • 5. Read luminescence readout on a plate reader.
Percent viability was calculated for each compound according to equation (2):
[formula] • Wherein RawData is the readout of any cell containing a compound of the invention.
TA is the total activity provided by the luminescence readout from DMSO only wells (columns 2 and 24)=100% viability.
NSA is the non-specific activity provided by DMSO+TSI wells (columns 1 and 23)=0% viability • Curve fitting: 10-point titration curves are fitted with the 4-parameter logistic nonlinear regression model and the IC50 reported is the inflection point of the curve • Analysis: Data was loaded into Dotmatics™ and visualised using the Tibco@ • Spotfire™ software. 10 point titration curves were fitted with the 4 parameter logistic nonlinear regression model and the IC50 reported reflect the inflection point of the curve for curve fitting.
Assay involving the TSI cocktail (T: TNF; S: Smac mimetic; I: IDN-6556): TSI treatment ensures that cells specifically undergo necroptotic cell death. TNF activates the TNF receptor, Smac mimetic directs the signal away from proinflammatory signaling and toward the RIPK1/RIPK3-mediated cell death pathways, and IDN-6556 (Caspase inhibitor) ensures that the apoptotic response is blocked leaving only the programmed necrosis response. The compounds' activity (solution in DMSO) tested in this TSI-induced assay was evaluated by determining the number of viable cells in culture by measuring the amount of ATP present as measured by CelltiterGlo.

For the next assay, the target named is human RIPK3 (Homo sapiens (Human), UniProt Q9Y572). The assay can be described thus: KINOMEscan binding assay, human RIPK3. The settings on record: Table 21. In short, it runs like this: (§1)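 Tagged kinase + immobilized ligand beads + compound; eluted kinase quantified by qPCR. Kinase source: T7 phage lysate (BL21-derived E. coli, 32 °C) or HEK-293 with DNA tag. 11-pt 3-fold series, 1% DMSO, top 30,000 nM (most). Hill fit, slope −1 → Kd.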
Sequence of human RIPK3 (Q9Y572 whole entry): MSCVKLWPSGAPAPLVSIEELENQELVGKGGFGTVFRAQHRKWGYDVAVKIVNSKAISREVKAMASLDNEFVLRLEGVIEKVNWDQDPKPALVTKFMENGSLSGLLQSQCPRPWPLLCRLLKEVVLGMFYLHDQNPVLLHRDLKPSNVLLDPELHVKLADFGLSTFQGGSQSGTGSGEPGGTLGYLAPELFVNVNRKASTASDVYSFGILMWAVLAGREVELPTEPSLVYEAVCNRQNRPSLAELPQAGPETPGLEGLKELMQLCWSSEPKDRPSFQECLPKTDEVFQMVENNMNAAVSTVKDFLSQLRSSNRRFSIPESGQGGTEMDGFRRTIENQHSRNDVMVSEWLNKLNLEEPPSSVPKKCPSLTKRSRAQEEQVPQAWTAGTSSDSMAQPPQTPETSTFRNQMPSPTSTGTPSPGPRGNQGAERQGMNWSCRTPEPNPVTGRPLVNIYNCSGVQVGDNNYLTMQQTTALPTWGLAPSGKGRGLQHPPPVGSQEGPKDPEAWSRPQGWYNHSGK

A further assay addresses human RIPK1 (Homo sapiens (Human), UniProt Q13546). The assay can be described thus: KINOMEscan binding assay, human RIPK1. Particulars: Table 21. The procedure, abridged: as §1
A further assay deals with human MLKL (full length) (Homo sapiens (Human), UniProt Q8NB16). The assay can be described thus: KINOMEscan binding assay, human MLKL (full length). The settings on record: hMLKL, Table 25; read-out: MLKL (KD). In short, it runs like this:
as §1

Molecules are shown by their SMILES. Where two headings read alike, the source gives them in different places.

The text below walks through data of patent US20250115598A1 (Anaxis Pharma Pty Ltd, priority 2021, published 2025).

Sequence of human MLKL (full length) (Q8NB16 whole entry): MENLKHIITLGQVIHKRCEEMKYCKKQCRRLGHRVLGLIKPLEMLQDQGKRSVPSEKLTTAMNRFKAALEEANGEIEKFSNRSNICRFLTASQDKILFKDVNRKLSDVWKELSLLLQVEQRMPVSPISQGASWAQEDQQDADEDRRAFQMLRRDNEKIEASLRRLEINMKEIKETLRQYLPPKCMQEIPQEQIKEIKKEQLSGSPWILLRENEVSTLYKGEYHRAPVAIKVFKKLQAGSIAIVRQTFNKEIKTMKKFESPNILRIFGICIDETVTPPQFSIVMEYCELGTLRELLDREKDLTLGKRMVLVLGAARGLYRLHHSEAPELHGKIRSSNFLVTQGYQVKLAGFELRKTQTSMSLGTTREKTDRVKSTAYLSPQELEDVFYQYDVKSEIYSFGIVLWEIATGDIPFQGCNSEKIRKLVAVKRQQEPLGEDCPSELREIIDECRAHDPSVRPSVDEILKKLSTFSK
Sequence of human RIPK1 (Q13546 whole entry): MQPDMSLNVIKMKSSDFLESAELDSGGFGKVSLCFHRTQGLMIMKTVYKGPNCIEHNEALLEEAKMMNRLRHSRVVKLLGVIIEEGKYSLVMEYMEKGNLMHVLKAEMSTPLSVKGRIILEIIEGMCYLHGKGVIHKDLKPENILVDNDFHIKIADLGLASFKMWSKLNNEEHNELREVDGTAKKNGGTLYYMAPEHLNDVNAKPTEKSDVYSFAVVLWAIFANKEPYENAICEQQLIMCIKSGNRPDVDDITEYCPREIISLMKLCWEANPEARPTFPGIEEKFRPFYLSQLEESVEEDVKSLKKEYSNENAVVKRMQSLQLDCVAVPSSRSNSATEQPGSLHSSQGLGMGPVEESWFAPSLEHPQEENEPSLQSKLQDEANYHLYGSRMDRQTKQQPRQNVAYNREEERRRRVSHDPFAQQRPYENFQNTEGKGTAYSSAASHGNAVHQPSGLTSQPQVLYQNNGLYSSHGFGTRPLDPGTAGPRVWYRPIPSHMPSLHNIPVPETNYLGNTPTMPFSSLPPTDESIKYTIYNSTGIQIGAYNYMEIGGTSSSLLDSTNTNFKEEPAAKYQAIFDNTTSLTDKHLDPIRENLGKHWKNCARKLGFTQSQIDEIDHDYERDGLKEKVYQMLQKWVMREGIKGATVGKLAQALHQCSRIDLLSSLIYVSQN

With `CC1C(n2cc(-c3cnc(N)c4c(-c5ccc(NS(=O)(=O)C(F)F)c(O[C@@H](C)c6ccc(F)cc6)c5)nn(C)c34)cn2)CN1C` (stereo partly drawn) [Compound 147, N-(4-(4-amino-7-(1-(1,2-dimethylazetidin-3-yl)-1H-pyrazol-4-yl)-1-methyl-1H-pyrazolo[4,3-c]pyridin-3-yl)-2-((S)-1-(4-fluorophenyl)ethoxy)phenyl)-1,1-difluoromethanesulfonamide], the IC50 in assay [1] (Table 24) is less than 1 µM. The Kd on human RIPK3 and on human RIPK1 was more than 10 µM throughout.

`C[C@H](Oc1cc(-c2nn(C)c3c(-c4cnn(C5CCN(C)C(C(F)(F)F)C5)c4)cnc(N)c23)ccc1NS(=O)(=O)C(F)F)c1ccc(F)cc1` (stereo partly drawn) [Compound 148, N-(4-(4-amino-1-methyl-7-(1-(1-methyl-2-(trifluoromethyl)piperidin-4-yl)-1H-pyrazol-4-yl)-1H-pyrazolo[4,3-c]pyridin-3-yl)-2-((S)-1-(4-fluorophenyl)eth-oxy)phenyl)-1,1-difluoromethane-sulfonamide]: in assay [1] (Table 24), the IC50 was less than 1 µM. Further, the Kd on human RIPK3 and on human RIPK1 was more than 10 µM in each case.

`C[C@H](Oc1cc(-c2nn(C)c3c(-c4cnn(C5CC6CCC(C5)N6CC(F)(F)F)c4)cnc(N)c23)ccc1NS(=O)(=O)C(F)F)c1ccc(F)cc1` (stereo partly drawn) [Compound 153, N-(4-(4-amino-1-methyl-7-(1-(8-(2,2,2-trifluoroethyl)-8-azabicyclo[3.2.1]octan-3-yl)-1H-pyrazol-4-yl)-1H-pyrazolo[4,3-c]pyridin-3-yl)-2-((S)-1-(4-fluorophenyl)ethoxy)phenyl)-1,1-difluoromethanesulfonamide]: the IC50 in assay [1] (Table 24) is less than 1 µM. Also, the Kd at human RIPK3 and at human RIPK1 was more than 10 µM each time.

As to `C[C@H](Oc1cc(-c2nn(C)c3c(-c4cnn(C5CCN(C(=O)CC6CN(c7cccc8c7C(=O)N(C7CCC(=O)NC7=O)C8=O)C6)CC5)c4)cnc(N)c23)ccc1NS(=O)(=O)C(F)F)c1ccc(F)cc1` (stereo partly drawn) [Compound 1112, N-[4-(4-amino-7-{1-[1-(2-{1-[2-(2,6-dioxopiperidin-3-yl)-1,3-dioxo-2,3-dihydro-1H-isoindol-4-yl]azetidin-3-yl}acetyl)piperidin-4-yl]-1H-pyrazol-4-yl}-1-methyl-1H-pyrazolo[4,3-c]pyridin-3-yl)-2-[(1S)-1-(4-fluorophenyl)ethoxy]phenyl]-1,1-difluoromethanesulfonamide], the Kd on human MLKL (full length) was less than 0.01 µM. Moreover, the IC50 in assay [1] (Table 27) was in the range of 1 to 10 µM.

Turning to `C[C@H](Oc1cc(-c2nn(C)c3c(-c4cnn(C5CCN(C(=O)c6ccc7c(N8CCC(=O)NC8=O)coc7c6)CC5)c4)cnc(N)c23)ccc1NS(=O)(=O)C(F)F)c1ccc(F)cc1` [Compound 1117, N-{4-[4-amino-7-(1-{1-[3-(2,4-dioxo-1,3-diazinan-1-yl)-1-benzofuran-6-carbonyl]piperidin-4-yl}-1H-pyrazol-4-yl)-1-methyl-1H-pyrazolo[4,3-c]pyridin-3-yl]-2-[(1S)-1-(4-fluorophenyl)ethoxy]phenyl}-1,1-difluoromethanesulfonamide], on human MLKL (full length), the Kd is less than 0.01 µM. Besides, in assay [1] (Table 27), the IC50 fell in the range of 1 to 10 µM.

For `C[C@H](Oc1cc(-c2nn(C)c3c(-c4cnn(C5CCN(CCc6cccc7c6C(=O)N(C6CCC(=O)NC6=O)C7=O)CC5)c4)cnc(N)c23)ccc1NS(=O)(=O)C(F)F)c1ccc(F)cc1` (stereo partly drawn) [Compound 1136, N-(4-{4-amino-7-[1-(1-{2-[2-(2,6-dioxopiperidin-3-yl)-1,3-dioxo-2,3-dihydro-1H-isoindol-4-yl]ethyl}piperidin-4-yl)-1H-pyrazol-4-yl]-1-methyl-1H-pyrazolo[4,3-c]pyridin-3-yl}-2-[(1S)-1-(4-fluorophenyl)ethoxy]phenyl)-1,1-difluoromethanesulfonamide], the Kd at human MLKL (full length) is less than 0.01 µM. In assay [1] (Table 27), the IC50 lay within 1 to 10 µM.
